According to PubChem BioAssay AID248 (DTP/NCI, 2004):
Several values for one entry are separate records, joined by “and”; a condition that tells them apart may be missing. Identical values can stand only once. Toxic doses and inconclusive results are not listed. Cut-off read from the data, not from the text of the source: active = T/C of 150% or more; inactive = T/C below 125%.

System: L1210 leukemia ip in BDF1 mice, survival T/C
Assay: NCI In Vivo Anticancer Drug Screen. Data for tumor model L1210 Leukemia (intraperitoneal) in B6D2F1 (BDF1) mice
Conditions: endpoint: mean survival time, higher = longer survival
In short: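 Value reflects the ratio of survival in compound-treated mice to survival in vehicle-treated controls, with both groups carrying the same transplanted tumor.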

[1] = dose: 100.0 mg/kg/injection, schedule: Q04DX003 (ip), vehicle: Klucel (hydroxypropylcellulose) (HPC)
[2] = dose: 200.0 mg/kg/injection, schedule: Q04DX003 (ip), vehicle: Klucel (hydroxypropylcellulose) (HPC)
[3] = dose: 400.0 mg/kg/injection, schedule: Q04DX003 (ip), vehicle: Klucel (hydroxypropylcellulose) (HPC)
[4] = dose: 100.0 mg/kg/injection, schedule: Q01DX001 (ip), vehicle: saline
[5] = dose: 100.0 mg/kg/injection, schedule: Q04DX003 (ip), vehicle: saline with Tween-80
[6] = dose: 200.0 mg/kg/injection, schedule: Q01DX001 (ip), vehicle: saline
[7] = dose: 200.0 mg/kg/injection, schedule: Q04DX003 (ip), vehicle: saline with Tween-80
[8] = dose: 400.0 mg/kg/injection, schedule: Q01DX001 (ip), vehicle: saline
[9] = dose: 400.0 mg/kg/injection, schedule: Q04DX003 (ip), vehicle: saline with Tween-80
[10] = dose: 25.0 mg/kg/injection, schedule: Q01DX009 (ip), vehicle: saline with Tween-80
[11] = dose: 50.0 mg/kg/injection, schedule: Q01DX009 (ip), vehicle: saline with Tween-80
[12] = dose: 100.0 mg/kg/injection, schedule: Q01DX009 (ip), vehicle: saline with Tween-80
[13] = dose: 200.0 mg/kg/injection, schedule: Q01DX009 (ip), vehicle: saline with Tween-80
[14] = dose: 400.0 mg/kg/injection, schedule: Q01DX009 (ip), vehicle: saline with Tween-80
[15] = dose: 50.0 mg/kg/injection, schedule: Q01DX001 (ip), vehicle: carboxymethylcellulose (CMC)
[16] = dose: 100.0 mg/kg/injection, schedule: Q01DX001 (ip), vehicle: carboxymethylcellulose (CMC)
[17] = dose: 200.0 mg/kg/injection, schedule: Q01DX001 (ip), vehicle: carboxymethylcellulose (CMC)
[18] = dose: 400.0 mg/kg/injection, schedule: Q01DX001 (ip), vehicle: carboxymethylcellulose (CMC)

Measured: T/C

CC1(C)CC(=O)c2c(cc(OS(C)(=O)=O)cc2OS(C)(=O)=O)O1
inactive: dose: 3.12 mg/kg/injection, schedule: Q01DX009 (ip), vehicle: Klucel (hydroxypropylcellulose) (HPC) 90 % of control | dose: 6.25 mg/kg/injection, schedule: Q01DX009 (ip), vehicle: Klucel (hydroxypropylcellulose) (HPC) 97 % of control | dose: 12.5 mg/kg/injection, schedule: Q01DX009 (ip), vehicle: Klucel (hydroxypropylcellulose) (HPC) 94 % of control

CCNC(=O)c1c2ccccc2nc2c1c(C)c(C)c1ccccc12
inactive: [1] 108 % of control | [2] 112 % of control | [3] 106 % of control

O=C(c1ccc(Cl)cc1)C(O)c1ccc(Cl)cc1 (stereo not given)
inactive: dose: 50.0 mg/kg/injection, schedule: Q01DX001 (ip), vehicle: saline 96 % of control | [4] 90 % of control | [5] 90 % of control | [6] 96 % of control | [7] 92 % of control | [8] 100 % of control | [9] 86 % of control

Nc1nc2ncc(CNc3ccc(C(=O)NC(CCC(=O)O)C(=O)O)cn3)nc2c(=O)[nH]1 (stereo not given)
inactive: [10] 104 % of control | dose: 37.5 mg/kg/injection, schedule: Q01DX009 (ip), vehicle: saline with Tween-80 114 % of control and 119 % of control | [11] 114 % of control | dose: 75.0 mg/kg/injection, schedule: Q01DX009 (ip), vehicle: saline with Tween-80 108 % of control

CCCCN(CCCC)CCCNC(=O)OCC
inactive: dose: 25.0 mg/kg/injection, schedule: Q01DX009 (ip), vehicle: Klucel (hydroxypropylcellulose) (HPC) 92 % of control | dose: 50.0 mg/kg/injection, schedule: Q01DX009 (ip), vehicle: Klucel (hydroxypropylcellulose) (HPC) 94 % of control | dose: 50.0 mg/kg/injection, schedule: Q04DX003 (ip), vehicle: Klucel (hydroxypropylcellulose) (HPC) 100 % of control | dose: 100.0 mg/kg/injection, schedule: Q01DX009 (ip), vehicle: Klucel (hydroxypropylcellulose) (HPC) 106 % of control and 87 % of control | [1] 103 % of control

OC(C#Cc1ccccc1)c1ccccc1 (stereo not given)
inactive: [11] 105 % of control | [12] 100 % of control | [5] 95 % of control | [13] 88 % of control and 89 % of control | [7] 101 % of control | [14] 98 % of control

CCN(CC)CCCC(C)Nc1cc(N)nc2nccnc12 (stereo not given)
inactive: dose: 25.0 mg/kg/injection, schedule: Q04DX003 (ip), vehicle: saline 102 % of control | dose: 50.0 mg/kg/injection, schedule: Q04DX003 (ip), vehicle: saline 111 % of control | dose: 100.0 mg/kg/injection, schedule: Q04DX003 (ip), vehicle: saline 107 % of control

COc1cc2c(cc1OC)C(CC1=C(c3ccccc3)CN3CCc4cc(OC)c(OC)cc4C3C1)NCC2 (stereo not given)
inactive: dose: 4.0 mg/kg/injection, schedule: Q04DX003 (ip), vehicle: water 106 % of control and 102 % of control | dose: 8.0 mg/kg/injection, schedule: Q04DX003 (ip), vehicle: water 98 % of control and 101 % of control | dose: 16.0 mg/kg/injection, schedule: Q04DX003 (ip), vehicle: water 106 % of control and 103 % of control | dose: 32.0 mg/kg/injection, schedule: Q04DX003 (ip), vehicle: water 102 % of control and 96 % of control | dose: 64.0 mg/kg/injection, schedule: Q04DX003 (ip), vehicle: water 96 % of control and 95 % of control | dose: 75.0 mg/kg/injection, schedule: Q01DX001 (ip), vehicle: saline 101 % of control and 97 % of control | dose: 150.0 mg/kg/injection, schedule: Q01DX001 (ip), vehicle: saline 94 % of control and 92 % of control

COc1ccc(C(=O)CC(c2ccccc2)N2CCCCC2)cc1OC (stereo not given)
inactive: [5] 100 % of control | [7] 108 % of control | [9] 105 % of control

ClC1=C(Cl)C2(Cl)CC1(Cl)C1OC12 (stereo not given)
inactive: dose: 12.5 mg/kg/injection, schedule: Q01DX009 (ip), vehicle: saline with Tween-80 104 % of control | [10] 104 % of control | [11] 96 % of control

FC1C(F)(F)C(F)(F)C(F)(F)C(F)(F)C1(F)F
inactive: [15] 97 % of control | [16] 97 % of control | [17] 107 % of control | [18] 96 % of control

O=C(Nc1ccccc1Cl)Nc1ccccc1[N+](=O)[O-]
inactive: dose: 100.0 mg/kg/injection, schedule: Q04DX002 (ip), vehicle: saline + alcohol 111 % of control | dose: 200.0 mg/kg/injection, schedule: Q04DX002 (ip), vehicle: saline + alcohol 100 % of control | dose: 400.0 mg/kg/injection, schedule: Q04DX002 (ip), vehicle: saline + alcohol 96 % of control

CN(C)C(c1ccccc1)C(CBr)C(=O)c1ccc(Br)cc1 (stereo not given)
inactive: dose: 12.5 mg/kg/injection, schedule: Q01DX009 (ip), vehicle: saline 93 % of control | dose: 12.5 mg/kg/injection, schedule: Q04DX003 (ip), vehicle: saline with Tween-80 96 % of control | dose: 25.0 mg/kg/injection, schedule: Q01DX009 (ip), vehicle: saline 91 % of control | dose: 25.0 mg/kg/injection, schedule: Q04DX003 (ip), vehicle: saline with Tween-80 102 % of control | dose: 50.0 mg/kg/injection, schedule: Q04DX003 (ip), vehicle: saline with Tween-80 96 % of control

CCCCCc1cccc(C)n1
inactive: [4] 96 % of control

CN(CCC#N)C(=O)Nc1ccccc1
inactive: dose: 100.0 mg/kg/injection, schedule: Q01DX Z (ip), vehicle: methylcellulose (MC) 103 % of control | dose: 200.0 mg/kg/injection, schedule: Q01DX Z (ip), vehicle: methylcellulose (MC) 95 % of control

N#CC(Nc1c(N)nc(N)nc1N)c1ccc(N(CCCl)CCCl)cc1 (stereo not given)
inactive: [15] 105 % of control | [16] 103 % of control | [17] 103 % of control | [18] 100 % of control

O=c1[nH]nnc2c1cnn2C1OC(CO)C(O)C1O (stereo not given)
inactive: [4] 100 % of control | [6] 106 % of control | [8] 97 % of control

CN(C)S(=O)(=O)/C=C/c1ccccc1
inactive: [2] 95 % of control | [3] 109 % of control

CCN(CC)P1(=O)NCCCO1 (stereo not given)
inactive: [12] 87 % of control | [13] 94 % of control | [14] 92 % of control

OCC1OC(n2ccc3c2ncn2ccnc32)C(O)C1O (stereo not given)
inactive: dose: 25.0 mg/kg/injection, schedule: Q01DX005 (ip), vehicle: saline 91 % of control | dose: 50.0 mg/kg/injection, schedule: Q01DX005 (ip), vehicle: saline 105 % of control | dose: 50.0 mg/kg/injection, schedule: Q01DX009 (ip), vehicle: saline 102 % of control | dose: 100.0 mg/kg/injection, schedule: Q01DX005 (ip), vehicle: saline 93 % of control | dose: 100.0 mg/kg/injection, schedule: Q01DX009 (ip), vehicle: saline 103 % of control

Cc1cccc([N+](=O)[O-])c1N
inactive: [15] 109 % of control | [16] 109 % of control | [17] 113 % of control | [18] 115 % of control
